We go through 6 compounds from US11555179B2, “Identification of subpopulations of cardiomyocytes” (The University of Hong Kong, priority 2019, dated 2023).

For one data set, the system named is CD36^+ hESC-CMs. Nature of the data set: Doxorubicin-induced cardiotoxicity (XTT viability, TMRE/MTG Δψm). The format is cell-based, human. To be noted: for effect on cell viability upon dox treatment (XTT): pre-treatment (NAC 1 mM, 1 hr), FIGS. 5I-K show mixed, CD36^+ and CD36^− hESC-CMs. The method, then: FIGS. 5A and 5B are bar graphs showing the normalized levels of cell viability (A) and mitochondrial membrane potential Δψm (B) of mixed (unsorted) hESC-CMs, CD36^+ hESC-CMs, and CD36^− hESC-CMs after exposure to doxorubicin (dox). The hESC-CMs were treated with 1 mM dox for 24 hrs. Cell viability and mitochondrial membrane potential Δψm were determined by the XTT and TMRE/MTG assays (n=9 and 7), respectively, and normalized to untreated hESC-CMs.
(C) and (D): viability and Δψm for unsorted hESC-CMs; (E) and (F): viability and Δψm for CD36^+ hESC-CMs; (G) and (H): viability and Δψm for CD36^− hESC-CMs. The cells in the “Dox” groups were treated with 1 mM dox for 24 hrs; the cells in the “Dox+DRZ” groups were pre-treated with […] DRZ for 1 hr, followed by co-treatment with 1 mM dox for 24 hrs. Cell viability and mitochondrial membrane potential Δψm were determined by the XTT and TMRE/MTG assays (n=7 and 9), respectively, and normalized to untreated hESC-CMs (i.e., the “Control” groups). *p<0.05, **p<0.01, ***p<0.001.
The cells in the “Dox” groups were treated with 1 mM dox for 24 hrs; the cells in the “Dox+NAC” groups were pre-treated with 1 mM NAC for 1 hr, followed by co-treatment with 1 mM dox for 24 hrs. Cell viability was determined by the XTT assay (n=4) and normalized to untreated cells (i.e., the “Control” groups).

The conditions of data set [1]: doses exceeding 550 mg/m^2; cited from earlier work.
In data set [2] the test system is CD172A^+/CD36^+ hESC-CMs. Description: Mitochondrial membrane potential (TMRE) with oleic acid supplementation. The format is cell-based, human. To be noted: nutrient-deficient media lacking fatty acids, plus oleic acid, FIG. 3B. The method, then: (§1) FIG. 3A is a bar graph showing the uptake of fatty acid (FA) by C[…]^+/CD36^+ (black) and C[…]^+/CD36^- (white) hESC-CMs. The FA uptake assay was performed using a BODIPY-labeled C16 palmitate analog (n=6). FIG. 3B is a bar graph showing the relative levels of mitochondrial membrane potential Δψm in C[…]^+/CD36^+ and C[…]^+/CD36^- hESC-CMs cultured in the absence (black) and presence (gray) of oleic acid (n=5). […] In addition to enhanced mitochondrial output, adult CMs were characterized by their preference for fatty acid as fuel for energy production. In CMs, CD36 functions as a fatty acid translocase to facilitate the uptake of long-chain fatty acids such as palmitic and oleic acids, thus increased level of this protein is expected to enhance fatty acid entry into cells. […] Additional experiments were performed to test whether increased fatty acid uptake led to increased metabolic output. When cultured in nutrient-deficient media lacking fatty acids, C[…]^+/CD36^+ and C[…]^+/CD36^- CMs had similar Δψm.

For data set [3], the system named is CD172A^+/CD36^− hESC-CMs. The description is as above. The format is cell-based, human. To be noted: nutrient-deficient media lacking fatty acids, plus oleic acid, FIG. 3B. As to the method:
as §1

For another data set, the system named is hPSC-CMs. The note with it: unsorted hPSC-CMs as currently utilized; cited from earlier work.
The conditions of data set [4]: dexrazoxane-treated pediatric patients, two randomized studies; cited from earlier work.
In another data set the test system is mouse models of DCT. To be noted: in vivo; cited from earlier work.
For data set [5] the following is noted: in vivo; cited from earlier work.
Data set [6] has as its system CD172A^+/CD36^+ hESC-CMs. The note with it: 100 μM hydrogen peroxide for 30 min. As to the method:
(§2) FIGS. 4A-4D are bar graphs showing the relative levels of mitochondrial superoxide (A), mitochondrial membrane potential Δψm (B), nuclear condensation (C), and cell viability (D) in CD172A^+/CD36^+/−, CD172A^+/CD36^+, and CD172A^+/CD36^− hECS-CMs after exposure to 100 μM hydrogen peroxide for 30 min. The relative levels of mitochondrial superoxide, mitochondrial membrane potential, nuclear condensation, and cell viability were determined using the MitoSOX™ red dye (n=5), TMRE staining (n=5, calibrated by mitochondrial mass based on the result of MTG staining), Hoechst staining (n=5), and PrestoBlue® staining (n=9), respectively. *p<0.05, **p<0.01, ***p<0.001.
(§3) The responses of mitochondrial function to oxidative stress were examined in subpopulations of hESC-CMs.

Data set [7] relates to CD172A^+/CD36^+/− hESC-CMs. To be noted: 100 μM hydrogen peroxide for 30 min. The method, then: as §2, §3
The test system of data set [8] is CD172A^+/CD36^− hESC-CMs. The note with it: 100 μM hydrogen peroxide for 30 min. As to the method: as §2, §3
Setting [9] is: then co-treatment with 1 mM dox 24 hrs.

On to vitamin E, for which the “effect on cell viability upon dox treatment (XTT)” value with CD36^+ hESC-CMs (setting [9]) was “did not increase cell viability”.
As for `COc1cccc2c1C(=O)c1c(O)c3c(c(O)c1C2=O)C[C@@](O)(C(=O)CO)C[C@@H]3O[C@H]1C[C@H](N)[C@H](O)[C@H](C)O1` [dox, Doxorubicin], the “cell viability upon dox treatment (XTT)” value with CD36^+ hESC-CMs (1 mM dox for 24 hrs, CD36^+ hESC-CMs compared to mixed (unsorted) or CD36^− CMs, FIG. 5A) was “more severe decrease”. Also, in the data set with CD36^+ hESC-CMs (1 mM dox for 24 hrs, CD36^+ hESC-CMs compared to mixed (unsorted) or CD36^− CMs, FIG. 5B), the “mitochondrial membrane potential (Δψm) upon dox treatment (TMRE/MTG)” value is on record as “more severe decrease”. The “onset of dox-induced cell degeneration” value with CD36^+ hESC-CMs (CD36^+ hESC-CMs compared to mixed (unsorted) or CD36^− CMs) is reported as “accelerated onset”. In data set [1], the “incidence of congestive heart failure” value is on record as “exceeds 30%”.
As for `CCCCCCCC/C=C\CCCCCCCC(=O)O` [oleic acid], the “increase in magnitude of Δψm on supplementation with oleic acid” value was found to be 43.0% with CD172A^+/CD36^+ hESC-CMs [2] and 22.9% in the data set with CD172A^+/CD36^− hESC-CMs [3].
Take `C[C@@H](CN1CC(=O)NC(=O)C1)N1CC(=O)NC(=O)C1` [dexrazoxane]: in the data set with CD36^+ hESC-CMs (200 mM DRZ pre-treatment 1 hr, then co-treatment with 1 mM dox 24 hrs, CD36^+ hESC-CMs, FIGS. 5E, 5F), the “protective effect against DCT (viability and Δψm)” value was “responded to the protective effect”. For the same compound, the “protection of hPSC-CMs against DCT” value in the data set on hPSC-CMs is “failed to protect”. The “incidence of second primary malignancies (myelodysplastic syndrome and acute myeloid leukemia)” value in data set [4] is recorded as “threefold increase”.
With `CC(=O)N[C@@H](CS)C(=O)O` [N-acetylcysteine], in the data set on CD36^+ hESC-CMs (setting [9]), the “effect on cell viability upon dox treatment (XTT)” value is “did not increase cell viability”. The “protection of hPSC-CMs against DCT” value in the data set on hPSC-CMs is reported as “rescued”. Moreover, in the data set with mouse models of DCT, the “efficacy in mouse models of DCT” value is listed as “effective”. The “outcome in clinical trials (DCT)” value in data set [5] was “unsuccessful”.
As for `OO` [hydrogen peroxide], the “mitochondrial superoxide (MitoSOX red dye)” value in the data set with CD172A^+/CD36^+ hESC-CMs [6] (FIG. 4A) was found to be 3.5±0.3 fold; in data set [7] (FIG. 4A) it was 2.2±0.4 fold; with CD172A^+/CD36^− hESC-CMs [8] (FIG. 4A) it was 1.7±1.2 fold. For the same compound, the results for the “relative mitochondrial membrane potential Δψm (TMRE, calibrated by MTG)” value (in the data set on CD172A^+/CD36^+ hESC-CMs [6] (FIG. 4B); in data set [7] (FIG. 4B); with CD172A^+/CD36^− hESC-CMs [8] (FIG. 4B)) were 0.17±0.03, 0.30±0.03 and 0.35±0.04, respectively. The “nuclear condensation (Hoechst staining)” value with CD172A^+/CD36^+ hESC-CMs [6] (FIG. 4C) was 73±8%; in data set [7] (FIG. 4C), 46±15%; in the data set on CD172A^+/CD36^− hESC-CMs [8] (FIG. 4C) it was 32%±11.
